Experimental data taken from patent US8937072B2, “Substituted cyanoaniline compounds, preparation and use thereof” (Sinochem Corporation, priority 2011, dated 2015).
Read-outs that look alike come from different tables or passages of the source.

Experiments:
rice blast = assay: microbe, parasite or virus in culture; assay type: cell-based; details: for inhibition rate against rice blast: in vitro, dose 8.3 mg/L; for the inhibition rate against rice blast (%) 0.03 mg/L: Table 21, 0.03 mg/L; for the inhibition rate against rice blast (%) 0.1 mg/L: Table 21, 0.1 mg/L; for the inhibition rate against rice blast (%) 0.3 mg/L: Table 21, 0.3 mg/L
cucumber downy mildew = assay: Protectant activity in vivo (whole plant) against cucumber downy mildew; details: for pest or weed control at 12.5 µg/mL / pest or weed control at 25 µg/mL / pest or weed control at 50 µg/mL / pest or weed control at 100 µg/mL / pest or weed control at 400 µg/mL: Cucumis sativus, 168 h; for pest or weed control at 25 µg/mL / pest or weed control at 50 µg/mL / pest or weed control at 100 µg/mL: read-out: the protectant activity (%) against cucumber downy mildew
Experimental: (§1) The method is as followed: The whole plant is used in this test. The compound is dissolved in a proper solvent to get mother solution. The proper solvent is selected from acetone, methanol, DMF and so on according to their dissolving capability to the sample. The volume rate of solvent and testing solution (v/v) is equal to or less than 5%. The mother solution is diluted with water containing 0.1% tween-80 to get the testing solution whose concentration is designed. The testing solution is sprayed to the host plant by a special plant sprayer. The plant is inoculated with fungus after 24 hours. According to the infecting characteristic of fungus, the plant is stored in a humidity chamber and then transferred into greenhouse after infection is finished. And the other plants are placed in greenhouse directly. The activity of compound is obtained by eyeballing after 7 days in common.

corn rust = assay: Protectant activity in vivo (whole plant) against corn rust; details: for pest or weed control at 6.25 µg/mL / pest or weed control at 25 µg/mL / pest or weed control at 100 µg/mL / pest or weed control at 400 µg/mL: Zea mays, 168 h
Experimental: as §1

cucumber gray mold = assay: Activity in vitro (96-well, High Through Put): inhibition rate against cucumber gray mold; assay type: cell-based; details: for inhibition at 0.3 µg/mL: 0.3 mg/L; for inhibition at 0.9 µg/mL / inhibition at 2.8 µg/mL / inhibition at 8.3 µg/mL: read-out: the inhibition rate against cucumber gray mold (%); for inhibition at 25 µg/mL: in vitro, dose 25 mg/L
Experimental: The method is as followed: High Through Put is used in the test. The compound is dissolved in a proper solvent to become a testing solution whose concentration is designed. The solvent is selected from acetone, methanol, DMF and so on according to their dissolving capability to the sample. In a no animalcule condition, the testing solution and pathogens suspension are added into the cells of 96 cells culture board, which then should be placed in the constant temperature box. 24 hours later, pathogen germination or growth can be investigated by eyeballing, and the activity in vitro of the compound is evaluated based on germination or growth of control treatment.

[1] = 400 mg/L, read-out: the protectant activity (%) against corn rust
[2] = dose 400 mg/L, read-out: protectant activity against corn rust in vivo

Structure (SMILES): COc1ccc(Nc2c(Cl)c(C#N)c(Cl)c(Cl)c2C#N)cc1 [Compound C-14]
- inhibition rate against rice blast (rice blast): 80%

Structure (SMILES): N#Cc1c(Cl)c(Cl)c(Nc2ccc(Cl)cc2[N+](=O)[O-])c(C#N)c1Cl [Compound B-39]
- protectant activity against cucumber downy mildew in vivo (cucumber downy mildew; dose 400 mg/L): 100%
- the inhibition rate against rice blast (%) 0.03 mg/L (rice blast): 0%
- the inhibition rate against rice blast (%) 0.1 mg/L (rice blast): 80%
- the inhibition rate against rice blast (%) 0.3 mg/L (rice blast): 100%

Structure (SMILES): N#Cc1c(Cl)c(Cl)c(Nc2nc(Cl)c(Cl)cc2Cl)c(C#N)c1Cl [Compound B-128]
- protectant activity against cucumber downy mildew in vivo (cucumber downy mildew; dose 50 mg/L): 98%
- protectant activity against cucumber downy mildew in vivo (cucumber downy mildew; dose 100 mg/L): 100%
- protectant activity against cucumber downy mildew in vivo (cucumber downy mildew; dose 400 mg/L): 100%
- the inhibition rate against rice blast (%) 0.03 mg/L (rice blast): 100%
- the inhibition rate against rice blast (%) 0.1 mg/L (rice blast): 100%
- the inhibition rate against rice blast (%) 0.3 mg/L (rice blast): 100%

Structure (SMILES): N#Cc1c(Cl)c(Cl)c(C#N)c(Nc2cc(Cl)cnc2Cl)c1Cl [Compound C-118]
- protectant activity against cucumber downy mildew in vivo (cucumber downy mildew; dose 400 mg/L): 100%
- the inhibition rate against rice blast (%) 0.03 mg/L (rice blast): 100%
- the inhibition rate against rice blast (%) 0.1 mg/L (rice blast): 100%
- the inhibition rate against rice blast (%) 0.3 mg/L (rice blast): 100%

Structure (SMILES): N#Cc1c(Cl)c(Cl)c(Nc2cc(C(F)(F)F)ccc2F)c(C#N)c1Cl [Compound B-30]
- the inhibition rate against rice blast (%) 0.03 mg/L (rice blast): 0%
- the inhibition rate against rice blast (%) 0.1 mg/L (rice blast): 50%
- the inhibition rate against rice blast (%) 0.3 mg/L (rice blast): 100%

Structure (SMILES): N#Cc1c(Cl)c(Cl)c(C#N)c(Nc2ncccn2)c1Cl [Compound C-126]
- protectant activity against cucumber downy mildew in vivo (cucumber downy mildew; dose 400 mg/L): 100%
- inhibition rate against rice blast (rice blast): 80%

Structure (SMILES): COc1ccc(Nc2c(F)c(C#N)c(F)c(F)c2C#N)cc1 [Compound C-68]
- inhibition rate against rice blast (rice blast): 80%

Structure (SMILES): N#Cc1c(Cl)c(Cl)c(C#N)c(Nc2c(Cl)cncc2Cl)c1Cl [Compound C-124]
- protectant activity against cucumber downy mildew in vivo (cucumber downy mildew; dose 50 mg/L): 100%
- protectant activity against cucumber downy mildew in vivo (cucumber downy mildew; dose 100 mg/L): 100%
- protectant activity against cucumber downy mildew in vivo (cucumber downy mildew; dose 400 mg/L): 100%
- the inhibition rate against rice blast (%) 0.03 mg/L (rice blast): 100%
- the inhibition rate against rice blast (%) 0.1 mg/L (rice blast): 100%
- the inhibition rate against rice blast (%) 0.3 mg/L (rice blast): 100%

Structure (SMILES): O=[N+]([O-])c1cc(C(F)(F)F)c(Cl)c([N+](=O)[O-])c1Nc1ncc(C(F)(F)F)cc1Cl [fluazinam]
- inhibition at 0.03 µg/mL (rice blast; Pyricularia oryzae, read-out: the inhibition rate against rice blast (%) 0.03 mg/L): 50%
- inhibition at 0.1 µg/mL (rice blast; Pyricularia oryzae, read-out: the inhibition rate against rice blast (%) 0.1 mg/L): 80%
- inhibition at 0.3 µg/mL (rice blast; Pyricularia oryzae, read-out: the inhibition rate against rice blast (%) 0.3 mg/L): 100%

Structure (SMILES): COC(=O)c1cc(Cl)c(Nc2c(Cl)c(Cl)c(C#N)c(Cl)c2C#N)c(Cl)c1 [Compound B-62]
- the protectant activity (%) against corn rust (corn rust; 6.25 mg/L): 0%
- the protectant activity (%) against corn rust (corn rust; 25 mg/L): 30%
- the protectant activity (%) against corn rust (corn rust; 100 mg/L): 60%
- the protectant activity (%) against corn rust (corn rust; 400 mg/L): 100%
- protectant activity against corn rust in vivo (corn rust; dose 400 mg/L): 100%
- the inhibition rate against rice blast (%) 0.03 mg/L (rice blast): 0%
- the inhibition rate against rice blast (%) 0.1 mg/L (rice blast): 80%
- the inhibition rate against rice blast (%) 0.3 mg/L (rice blast): 100%

Structure (SMILES): N#Cc1c(Cl)c(Cl)c(Nc2cc(Cl)cnc2Cl)c(C#N)c1Cl [Compound B-133]
- the protectant activity (%) against cucumber downy mildew (cucumber downy mildew; 12.5 mg/L): 95%
- the protectant activity (%) against cucumber downy mildew (cucumber downy mildew; 25 mg/L): 100%
- the protectant activity (%) against cucumber downy mildew (cucumber downy mildew; 50 mg/L): 100%
- the protectant activity (%) against cucumber downy mildew (cucumber downy mildew; 100 mg/L): 100%
- protectant activity against cucumber downy mildew in vivo (cucumber downy mildew; dose 6.25 mg/L): 80%
- protectant activity against cucumber downy mildew in vivo (cucumber downy mildew; dose 25 mg/L): 100%
- protectant activity against cucumber downy mildew in vivo (cucumber downy mildew; dose 50 mg/L): 100%
- protectant activity against cucumber downy mildew in vivo (cucumber downy mildew; dose 100 mg/L): 100%
- the inhibition rate against rice blast (%) 0.03 mg/L (rice blast): 100%
- the inhibition rate against rice blast (%) 0.1 mg/L (rice blast): 100%
- the inhibition rate against rice blast (%) 0.3 mg/L (rice blast): 100%

Structure (SMILES): N#Cc1c(Cl)c(Cl)c(Nc2c(Br)cc([N+](=O)[O-])cc2Br)c(C#N)c1Cl [Compound B-57]
- the protectant activity (%) against corn rust (corn rust; 6.25 mg/L): 60%
- the protectant activity (%) against corn rust (corn rust; 25 mg/L): 80%
- the protectant activity (%) against corn rust (corn rust; 100 mg/L): 85%
- the protectant activity (%) against corn rust (corn rust; 400 mg/L): 100%
- protectant activity against corn rust in vivo (corn rust; dose 400 mg/L): 100%
- the inhibition rate against cucumber gray mold (%) (cucumber gray mold; 0.9 mg/L): 80%
- the inhibition rate against cucumber gray mold (%) (cucumber gray mold; 2.8 mg/L): 100%
- the inhibition rate against cucumber gray mold (%) (cucumber gray mold; 8.3 mg/L): 100%
- the protectant activity (%) against cucumber downy mildew (cucumber downy mildew; 12.5 mg/L): 30%
- the protectant activity (%) against cucumber downy mildew (cucumber downy mildew; 25 mg/L): 100%
- the protectant activity (%) against cucumber downy mildew (cucumber downy mildew; 50 mg/L): 100%
- the protectant activity (%) against cucumber downy mildew (cucumber downy mildew; 100 mg/L): 100%
- protectant activity against cucumber downy mildew in vivo (cucumber downy mildew; dose 25 mg/L): 100%
- protectant activity against cucumber downy mildew in vivo (cucumber downy mildew; dose 50 mg/L): 100%
- protectant activity against cucumber downy mildew in vivo (cucumber downy mildew; dose 100 mg/L): 100%
- protectant activity against cucumber downy mildew in vivo (cucumber downy mildew; dose 400 mg/L): 100%

Structure (SMILES): N#Cc1c(Cl)c(Cl)c(Nc2c(Cl)cc([N+](=O)[O-])cc2Br)c(Cl)c1C#N [Compound A-46]
- the protectant activity (%) against corn rust (corn rust; 6.25 mg/L): 75%
- the protectant activity (%) against corn rust (corn rust; 25 mg/L): 85%
- the protectant activity (%) against corn rust (corn rust; 100 mg/L): 95%
- the protectant activity (%) against corn rust (corn rust; 400 mg/L): 100%
- protectant activity against corn rust in vivo (corn rust; dose 400 mg/L): 100%
- the inhibition rate against rice blast (%) 0.03 mg/L (rice blast): 100%
- the inhibition rate against rice blast (%) 0.1 mg/L (rice blast): 100%
- the inhibition rate against rice blast (%) 0.3 mg/L (rice blast): 100%

Structure (SMILES): N#Cc1c(Cl)c(Cl)c(Nc2ccc(C(F)(F)F)cc2Cl)c(C#N)c1Cl [Compound B-28]
- the protectant activity (%) against cucumber downy mildew (cucumber downy mildew; 12.5 mg/L): 20%
- the protectant activity (%) against cucumber downy mildew (cucumber downy mildew; 25 mg/L): 80%
- the protectant activity (%) against cucumber downy mildew (cucumber downy mildew; 50 mg/L): 98%
- the protectant activity (%) against cucumber downy mildew (cucumber downy mildew; 100 mg/L): 100%
- protectant activity against cucumber downy mildew in vivo (cucumber downy mildew; dose 50 mg/L): 98%
- protectant activity against cucumber downy mildew in vivo (cucumber downy mildew; dose 100 mg/L): 100%
- protectant activity against cucumber downy mildew in vivo (cucumber downy mildew; dose 400 mg/L): 100%
- the inhibition rate against rice blast (%) 0.03 mg/L (rice blast): 80%
- the inhibition rate against rice blast (%) 0.1 mg/L (rice blast): 100%
- the inhibition rate against rice blast (%) 0.3 mg/L (rice blast): 100%

Structure (SMILES): CN(C)c1ccc(Nc2c(F)c(F)c(C#N)c(F)c2C#N)cc1 [KC24]
- pest or weed control at 6.25 µg/mL (corn rust; 6.25 mg/L): 0%
- pest or weed control at 25 µg/mL (corn rust; 25 mg/L): 0%
- pest or weed control at 100 µg/mL (corn rust; 100 mg/L): 0%
- pest or weed control at 400 µg/mL (corn rust; [1]): 0%
- pest or weed control at 400 µg/mL (corn rust; [2]): 0%
- inhibition at 0.3 µg/mL (cucumber gray mold): 0%
- inhibition at 0.9 µg/mL (cucumber gray mold; 0.9 mg/L): 0%
- inhibition at 2.8 µg/mL (cucumber gray mold; 2.8 mg/L): 0%
- inhibition at 8.3 µg/mL (cucumber gray mold; 8.3 mg/L): 0%
- inhibition at 25 µg/mL (cucumber gray mold): 0%
- pest or weed control at 12.5 µg/mL (cucumber downy mildew; 12.5 mg/L): 0%
- pest or weed control at 25 µg/mL (cucumber downy mildew; 25 mg/L): 0%
- pest or weed control at 50 µg/mL (cucumber downy mildew; 50 mg/L): 0%
- pest or weed control at 100 µg/mL (cucumber downy mildew; 100 mg/L): 0%
- pest or weed control at 400 µg/mL (cucumber downy mildew; dose 400 mg/L): 0%

Structure (SMILES): COc1ccc(Nc2c(F)c(F)c(C#N)c(C#N)c2F)c(OC)c1 [KC27]
- pest or weed control at 6.25 µg/mL (corn rust; 6.25 mg/L): 0%
- pest or weed control at 25 µg/mL (corn rust; 25 mg/L): 0%
- pest or weed control at 100 µg/mL (corn rust; 100 mg/L): 0%
- pest or weed control at 400 µg/mL (corn rust; [1]): 0%
- pest or weed control at 400 µg/mL (corn rust; [2]): 0%
- inhibition at 0.3 µg/mL (cucumber gray mold): 0%
- inhibition at 0.9 µg/mL (cucumber gray mold; 0.9 mg/L): 0%
- inhibition at 2.8 µg/mL (cucumber gray mold; 2.8 mg/L): 0%
- inhibition at 8.3 µg/mL (cucumber gray mold; 8.3 mg/L): 0%
- inhibition at 25 µg/mL (cucumber gray mold): 0%
- pest or weed control at 12.5 µg/mL (cucumber downy mildew; 12.5 mg/L): 0%
- pest or weed control at 25 µg/mL (cucumber downy mildew; 25 mg/L): 0%
- pest or weed control at 50 µg/mL (cucumber downy mildew; 50 mg/L): 0%
- pest or weed control at 100 µg/mL (cucumber downy mildew; 100 mg/L): 0%
- pest or weed control at 400 µg/mL (cucumber downy mildew; dose 400 mg/L): 0%
